Results as given in PubChem BioAssay (NCI).
Values joined by “and” are separate entries in the source; they are usually repeats but may differ in a detail not shown here. Identical values can stand only once.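 These data come from cells grown in 96-well plates and exposed to compound for 48 hours at five concentrations. GI50 = concentration required for 50% inhibition of growth. The concentration for full growth arrest is given as TGI.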

What was measured:
Experiment in all cases: inhibition of tumour cell growth, NCI panel, 48 h
[1] = test system: SF-268 CNS
[2] = test system: MALME-3M melanoma
[3] = test system: DMS 273 small cell lung
[4] = test system: RPMI-8226 leukemia
[5] = test system: NCI-H226 lung
[6] = test system: COLO 205 colon
[7] = test system: HL-60(TB) leukemia
[8] = test system: A498 renal
[9] = test system: TK-10 renal
[10] = test system: SF-295 CNS
[11] = test system: KM20L2 colon
[12] = test system: OVCAR-3 ovarian
[13] = test system: SK-MEL-5 melanoma
[14] = test system: SNB-75 CNS
[15] = test system: LOX IMVI melanoma
[16] = test system: HOP-18 NSCLC
[17] = test system: NCI-H522 lung
[18] = test system: EKVX NSCLC
[19] = test system: U251 CNS
[20] = test system: DMS 114 small cell lung
[21] = test system: SW-620 colon
[22] = test system: HOP-62 NSCLC
[23] = test system: UACC-257 melanoma
[24] = test system: IGROV1 ovarian
[25] = test system: A549 NSCLC
[26] = test system: MOLT-4 leukemia
[27] = test system: CCRF-CEM leukemia
[28] = test system: 786-0 renal
[29] = test system: HT29 colon
[30] = test system: KM12 colon
[31] = test system: UO-31 renal
[32] = test system: RXF-631 renal
[33] = test system: SN12C renal
[34] = test system: HCT-116 colon
[35] = test system: M14 melanoma
[36] = test system: M19-MEL melanoma
[37] = test system: HCC-2998 colon
[38] = test system: SK-MEL-2 melanoma
[39] = test system: NCI-H23 lung
[40] = test system: DLD-1 colon
[41] = test system: SF-539 CNS
[42] = test system: K-562 leukemia
[43] = test system: ACHN renal
[44] = test system: RXF 393 renal
[45] = test system: SNB-19 CNS
[46] = test system: OVCAR-8 ovarian
[47] = test system: NCI-H460 lung
[48] = test system: OVCAR-5 ovarian
[49] = test system: SR leukemia
[50] = test system: OVCAR-4 ovarian
[51] = test system: SK-MEL-28 melanoma
[52] = test system: LXFL 529 NSCLC
[53] = test system: UACC-62 melanoma
[54] = test system: NCI/ADR-RES ovarian
[55] = test system: MDA-MB-435
[56] = test system: DU-145 prostate
[57] = test system: CAKI-1 renal
[58] = test system: MCF7 breast
[59] = test system: BT-549 breast
[60] = test system: HCT-15 colon
[61] = test system: SNB-78 CNS
[62] = test system: HOP-92 NSCLC
[63] = test system: MDA-MB-231 breast
[64] = test system: SK-OV-3 ovarian
[65] = test system: PC-3 prostate
[66] = test system: XF 498 CNS
[67] = test system: T-47D breast
[68] = test system: MDA-N
[69] = test system: HS 578T breast

## CCOP(=O)(CC(=O)C1=C(O)C(CCCNC(=O)OC(C)(C)C)N(Cc2ccc(OC)c(OC)c2)C1=O)OCC (configuration not stated)
[1]
  TGI: > 100 µM
[2]
  TGI: > 100 µM
[3]
  TGI: > 100 µM
[4]
  TGI: > 100 µM
[5]
  TGI: > 100 µM
[6]
  TGI: > 100 µM
[7]
  TGI: > 100 µM
[8]
  TGI: > 100 µM
[9]
  TGI: > 100 µM
[10]
  TGI: > 100 µM
[11]
  TGI: > 100 µM
[12]
  TGI: > 100 µM
[13]
  TGI: > 100 µM
[14]
  TGI: > 100 µM
[15]
  TGI: > 100 µM
[16]
  TGI: > 100 µM
[17]
  TGI: > 100 µM
[18]
  TGI: > 100 µM
[19]
  TGI: > 100 µM
[20]
  TGI: > 100 µM
[21]
  TGI: > 100 µM
[22]
  TGI: > 100 µM
[23]
  TGI: > 100 µM
[24]
  TGI: > 100 µM
[25]
  TGI: > 100 µM
[26]
  TGI: > 100 µM
[27]
  TGI: > 100 µM
[28]
  TGI: > 100 µM
[29]
  TGI: > 100 µM
[30]
  TGI: > 100 µM
[31]
  TGI: > 100 µM
[32]
  TGI: > 100 µM
[33]
  TGI: > 100 µM
[34]
  TGI: > 100 µM
[35]
  TGI: > 100 µM
[36]
  TGI: > 100 µM
[37]
  TGI: > 100 µM
[38]
  TGI: > 100 µM
[39]
  TGI: > 100 µM
[40]
  TGI: > 100 µM
[41]
  TGI: > 100 µM
[42]
  TGI: > 100 µM
[43]
  TGI: > 100 µM
[44]
  TGI: > 100 µM
[45]
  TGI: > 100 µM
[46]
  TGI: > 100 µM
[47]
  TGI: > 100 µM
[48]
  TGI: > 100 µM
[49]
  TGI: > 100 µM
[50]
  TGI: > 100 µM
[51]
  TGI: > 100 µM
[52]
  TGI: > 100 µM
[53]
  TGI: > 100 µM

## COc1cc(-c2oc3c(OC)c(OC)cc(O)c3c(=O)c2OC)ccc1O
[1]
  GI50: 34.4 µM and 15.3 µM
  TGI: > 100 µM
[2]
  TGI: > 100 µM
[5]
  GI50: 3.88 µM and 12.4 µM
  TGI: 9.68 µM and > 50 µM
[54]
  TGI: > 50 µM
[6]
  TGI: > 100 µM
[7]
  TGI: 7.58 µM
[8]
  GI50: 3.38 µM and 16.6 µM
  TGI: > 100 µM and 42.4 µM
[9]
  TGI: 22.8 µM and 40.2 µM
[10]
  GI50: 3.24 µM and 8.34 µM
  TGI: > 100 µM and 38.1 µM
[11]
  TGI: > 100 µM
[12]
  TGI: > 50 µM
[55]
  TGI: > 50 µM
[56]
  TGI: > 50 µM
[57]
  TGI: > 50 µM
[13]
  GI50: 2.37 µM and 9.11 µM
  TGI: > 100 µM and 37.7 µM
[58]
  TGI: > 50 µM
[14]
  GI50: 1.7 µM and > 5 µM
  TGI: 8.54 µM and > 5 µM
[15]
  GI50: 1.88 µM and 7.95 µM
  TGI: > 100 µM and 36.3 µM
[17]
  TGI: 31.3 µM and > 50 µM
[18]
  TGI: > 50 µM
[19]
  GI50: 5.97 µM and 12.7 µM
  TGI: > 100 µM
[20]
  TGI: > 100 µM
[21]
  GI50: > 100 µM and 37.8 µM
  TGI: > 100 µM
[59]
  TGI: 35.7 µM
[22]
  GI50: 4.01 µM and 14.7 µM
  TGI: > 100 µM
[23]
  TGI: > 100 µM
[60]
  TGI: > 100 µM
[24]
  TGI: > 100 µM and 35.5 µM
[25]
  TGI: > 50 µM
[26]
  TGI: 31.5 µM
[27]
  TGI: > 100 µM and 21.4 µM
[28]
  TGI: > 100 µM
[61]
  TGI: > 100 µM
[29]
  TGI: > 100 µM
[30]
  GI50: > 100 µM and 19 µM
  TGI: > 100 µM
[62]
  GI50: 2.74 µM and 5.85 µM
  TGI: 9.13 µM and 30.1 µM
[31]
  GI50: 3.88 µM and 8.21 µM
  TGI: > 100 µM
[32]
  TGI: > 100 µM
[63]
  TGI: > 50 µM
[64]
  TGI: 14.3 µM
[33]
  GI50: 3.73 µM and 12.4 µM
  TGI: > 100 µM
[34]
  TGI: > 100 µM
[35]
  GI50: 3 µM and 6.26 µM
  TGI: > 100 µM
[37]
  GI50: > 100 µM and 31 µM
  TGI: > 100 µM
[38]
  GI50: 2.52 µM and 6.91 µM
  TGI: > 100 µM and 32.7 µM
[65]
  TGI: > 50 µM
[39]
  GI50: 7.38 µM and 35.1 µM
  TGI: > 100 µM
[40]
  TGI: > 100 µM
[41]
  TGI: > 100 µM and 49.2 µM
[42]
  TGI: > 50 µM
[43]
  GI50: 1.84 µM and 4.71 µM
[66]
  TGI: 16.1 µM
[44]
  TGI: > 100 µM
[45]
  TGI: > 100 µM
[67]
  TGI: 34.4 µM
[46]
  TGI: > 50 µM
[47]
  GI50: 4 µM and 8.51 µM
  TGI: > 100 µM
[48]
  TGI: > 50 µM
[50]
  GI50: > 100 µM and 11.4 µM
  TGI: > 100 µM
[68]
  TGI: > 50 µM
[51]
  GI50: > 100 µM and 20 µM
  TGI: > 100 µM
[52]
  TGI: > 100 µM
[69]
  TGI: 29.7 µM
[53]
  TGI: > 100 µM

## C=CCNC1=C(C(=O)OCC)C(=O)CO1
[1]
  TGI: > 100 µM
[2]
  TGI: > 100 µM
[3]
  TGI: > 100 µM
[4]
  TGI: > 100 µM
[5]
  TGI: > 100 µM
[7]
  TGI: > 100 µM
[8]
  TGI: > 100 µM
[9]
  TGI: > 100 µM
[10]
  TGI: > 100 µM
[11]
  TGI: > 100 µM
[12]
  TGI: > 100 µM
[57]
  TGI: > 100 µM
[13]
  TGI: > 100 µM
[14]
  TGI: > 100 µM
[15]
  TGI: > 100 µM
[17]
  TGI: > 100 µM
[18]
  TGI: > 100 µM
[19]
  TGI: > 100 µM
[20]
  TGI: > 100 µM
[21]
  TGI: > 100 µM
[23]
  TGI: > 100 µM
[60]
  TGI: > 100 µM
[24]
  TGI: > 100 µM
[25]
  TGI: > 100 µM
[26]
  TGI: > 100 µM
[27]
  TGI: > 100 µM
[28]
  TGI: > 100 µM
[61]
  TGI: > 100 µM
[29]
  TGI: > 100 µM
[62]
  TGI: > 100 µM
[31]
  TGI: > 100 µM
[32]
  TGI: > 100 µM
[33]
  TGI: > 100 µM
[34]
  TGI: > 100 µM
[35]
  TGI: > 100 µM
[36]
  TGI: > 100 µM
[37]
  TGI: > 100 µM
[38]
  TGI: > 100 µM
[39]
  TGI: > 100 µM
[40]
  TGI: > 100 µM
[41]
  TGI: > 100 µM
[42]
  TGI: > 100 µM
[43]
  TGI: > 100 µM
[66]
  TGI: > 100 µM
[44]
  TGI: > 100 µM
[45]
  TGI: > 100 µM
[46]
  TGI: > 100 µM
[47]
  TGI: > 100 µM
[48]
  TGI: > 100 µM
[49]
  TGI: > 100 µM
[50]
  TGI: > 100 µM
[51]
  TGI: > 100 µM
[52]
  TGI: > 100 µM
[53]
  TGI: > 100 µM
